Laboratory results from the NIST ThermoML archive (doi:10.1021/je700191v).

Experiment: mn = molality of the nth substance listed, in mol/kg
Conditions: 101 kPa, Liquid

CC1(C)S[C@@H]2[C@H](NC(=O)Cc3ccccc3)C(=O)N2[C@H]1C(=O)[O-].[K+] + O
mass density [kg/m3]
Conditions	293.15 K	298.15 K	303.15 K	308.15 K
m1 = 0.01891	1000.62	999.45	–	–
m1 = 0.01952	–	–	998.081	996.399
m1 = 0.03888	–	–	1000.47	998.73
m1 = 0.03922	1003.15	1001.98	–	–
m1 = 0.05831	–	–	1002.85	1001.06
m1 = 0.05967	1005.7	1004.5	–	–
m1 = 0.07995	–	–	1005.48	1003.59
m1 = 0.08039	1008.26	1007.04	–	–
m1 = 0.1	–	–	1007.88	1006.02
m1 = 0.1008	1010.74	1009.5	–	–
m1 = 0.1193	–	–	1010.19	1008.28
m1 = 0.1217	1013.28	1011.99	–	–
